Calls of active or inactive are those of the source. The rule behind the calls is not given here.
What follows are compounds tested on Lemna aequinoctialis (assay: Induction of flowering in Lemna paucicostata 151 after 10 days).
Assay type: functional, organism-based
For `CCCCC[C@@H]1[C@H](CC(=O)CCCCCCCCC(=O)O)O[C@]2(O)CC13C(=CC2=O)NC[C@@H]3O`, the Activity was “inactive”. For `CC/C=C\C[C@@H]1[C@H](CC(=O)[C@@H](O)CCCCCCCC(=O)O)O[C@]2(O)CC13C(=CC2=O)N(C)C[C@@H]3O`, the Activity was “Active”. In the case of `CC/C=C\C[C@@H]1[C@H](CC(=O)[C@@H](O)CCCCCCCC(=O)OC)O[C@]2(O)CC13C(=CC2=O)NC[C@@H]3O`, the Activity is reported as “Active”. For `CCCCC[C@@H]1[C@H](CC(=O)C(O)CCCCCCCC(=O)O)O[C@]2(O)CC13C(=CC2=O)NC[C@@H]3O` (some centres not stated), the Activity was “Active”. `CC/C=C\C[C@@H]1[C@H](CC(=O)CCCCCCCCC(=O)O)O[C@]2(O)CC13C(=CC2=O)NC[C@@H]3O` was tested, and the Activity was “Active”. In the case of `CC/C=C\C[C@@H]1[C@H](CC(=O)[C@H](O)CCCCCCCC(=O)O)O[C@]2(O)CC13C(=CC2=O)N(C)C[C@@H]3O`, the Activity is reported as “Active”. For `CC/C=C\C[C@@H]1[C@H](CC(=O)[C@H](O)CCCCCCCC(=O)OC)O[C@]2(O)CC13C(=CC2=O)NC[C@@H]3O`, the Activity was “Active”.

Reference: ChEMBL document CHEMBL1151691, “Structure and biological activity of novel FN analogs as flowering inducers” (Bioorg Med Chem, 2008)
